Test results taken from patent publication US20210212984A1, “FORMULATION FOR PAIN MANAGEMENT” (Zyus Life Sciences Inc., priority 2019, published 2021).
Several values for one entry are separate records, joined by “and”; a condition that tells them apart may be missing. Equal values may be shown once.

How the values were obtained:
Format in all cases: in vivo, Sprague-Dawley rats
SNL operated SD rats [1] = assay: Fine motor kinematic gait analysis (MotoRater) in SNL rats; details: within group, D7 to 24 h PD
Protocol: Fine Motor Kinematic Gait Analysis. The rats were subjected to gait analysis at the baseline and on study days 8, 9, 11, 14 and 17, at a minimum of 30 min after the evF test. The assay were carried out by MotoRater (TSE Systems, Homburg, Germany), with the walking mode. Prior to commencing the test, the essential body points (e.g. joints, limbs, nose, tail) were marked for tracking. The information of the gait performance was captured using a high speed camera (300 frames/second) from below and both sides. Next, the captured videos were converted to SimiMotion™ software. The raw data were obtained by tracking the marked points of the body from the videos recorded from all 3 dimensions. […]
Different gait patterns and movements were analyzed using a custom-made automated analysis system. […]
All Motorater data were analyzed for the distinct parameters, as well as for all combined parameters, using principal component analysis (PCA). […]
Comprehensive kinematic analysis was performed by high sensitivity MotoRater that allows detection of any subtle to severe gait changes in SNL model. […] The fine motor capabilities and the gait of the animals were evaluated at the baseline and four times after the SNL surgery, 2 h, 5 h, 9 h and 24 hours post-dosing using the kinematic movement analysis of altogether 97 separate parameters that were recorded.

SNL operated SD rats [2] = assay: Data mining (contrastive PCA) of multivariate kinematic gait data: SNL model score and sedation score; details: 50 mg/kg
Protocol: In this Example, data mining was performed to extend the multivariate kinematic data analysis and capture (a) Parameters indicative of analgesia vs. sedation phenotypes (analgesic or sedation ‘fingerprint’) (b) Quantitative measurement of parameters attributed to the temporal aspects of motion to evaluate temporal aspects of motion, such as positions, angles, velocities, and accelerations of body segments and joints during motion. Briefly, Contrastive Principal Component Analysis (cPCA) was utilized to identify different combinations of original variables which were linked to model effect, learning effect, and sedative effects. An orthogonalization procedure was used to make the obtained effects independent. cPC scores corresponding to identified cPCs were computed. In order to evaluate the analgesic and sedative effects of CBD:CBC:THC 5:5:5 mg/kg group, separate comparisons were performed with vehicle and pregabalin as controls, CBD+THC 10:10 mg/kg as positive control for sedation and CBC 10 mg/kg as negative control for sedation. The results of these comparisons were obtained by using all the previously identified components: model effect, learning effect and model orthogonal to learning, sedation orthogonal to model, and finally, the sedation orthogonal to both model and learning. […]

SNL operated SD rats [3] = assay: Tactile allodynia test, electronic von Frey (evF), paw withdrawal threshold in spinal nerve ligation (SNL) rats
Protocol: Spinal Nerve Ligation (SNL) Surgery. The animals were enrolled to SNL surgery in daily cohorts of n=6. The rats first received an intraperitoneal dose of 0.03 mg/kg buprenorphine (Temgesic), minimum of 30 minutes prior to the surgery, to alleviate the operative and postoperative pain unrelated to neuropathy. Prior to spinal nerve ligation (SNL) procedure, the rats were anesthetized with isoflurane in 70% N2O and 30% O2; with a flow rate of 300 ml/min. Anesthesia was inducted in a chamber with 5% isoflurane for 2-3 min, and maintained through a snout mask with 1-2% isoflurane thereafter. A homeothermic blanket system was used for the rectal temperature to be monitored and maintained at 37.0° C.±1.5° C. during the operation.
A dorsal incision extending from L3 to S2 was performed to the medial dorsal area of the rat using aseptic technique. The L6/S1 posterior interarticular process was exposed using a combination of blunt and sharp dissection. The L6 transverse process in the spinal column was visualized and partially removed without manipulating the nerves, followed by exposing the L4 and L5 spinal nerves distal to their emergence from the intervertebral foramina.
The L5 nerve was ligated tightly with 6-0 silk suture. The L6 nerve was then located caudal and medial to the sacroiliac junction and tightly ligated with 6-0 silk suture, similarly to L5. Both ligatures were performed as double knots.
Tactile Allodynia Test (evF) and Pre-Handling and Baseline evF. In this study, mechanical sensitivity to touch stimuli was defined at four timepoints by using electronic von Frey (evF) device along with the attached analysis software (Somedic®, Sweden).
To perform the evF test, the rats were placed in individual von Frey test chambers standing on an elevated steel mesh. The rats were then allowed to adapt in the chambers, and the test per se was emerged after they have settled down followed by investigating the chamber and grooming (approximately 15 min). Test […] an animals were grooming, urinating, defecating or sleeping. Further description of test procedure is provided hereinbelow.
Conducting evF Test. Mechanical allodynia were assessed by evF test prior to SNL surgery (baseline), to define the individual sensitivity levels of the study animals. Next, the evF was performed on D 7 post-SNL, to assess the hypersensitivity evoked by the SNL surgery, and to provide pre-dosing sensitivity values for comparing. On D 8, the animals were subjected to the test at 2 h post-dosing (PD), at 4 h PD and at 8 h PD. Subsequently, the test was performed at 24 h PD, i.e. on D 9. On D 9, Group 2 received Pregabalin (i.p) at 2 h prior to testing.
The evF apparatus was used according to the manufacturer's instructions. Briefly, upon each measurement, the force is applied to mid-plantar surface of the hind paw in a linearly increasing rate.
The used evF probe diameter was 1 mm, and the chosen ascent rate of the force 10 g/s. The linearity of force application was monitored in real time. The applied force (in grams) causing paw withdrawal was recorded by the apparatus as the result for the trial.
Altogether, 5 repeated measurements were applied to each hind paw at each time-point leaving a minimum of 3-min interval between the repeats. Medians of the 5 measurement repeats were determined from each paw at any given time point. Both ipsi- and contralateral paws were also tested on each test day.

CC(C)C[C@H](CN)CC(=O)O [Pregabalin]
overall gait score pattern over time, in words (SNL operated SD rats [1]): increasing score until 9 h PD timepoint | analgesic or sedative effect in the kinematic data (SNL operated SD rats [2]): no analgesic or sedative effect | Mean Diff, evF AUC (SNL operated SD rats [3]; 5 mg/kg subset, labelled group vs. CBD + THC + CBC 5:5:1 mg/kg): 13.8 and 14 | Mean Diff, evF AUC (SNL operated SD rats [3]; 5 mg/kg subset, labelled group vs. Vehicle): 29.8 and 30 | Mean (Mean 1/Mean 2), electronic von Frey Area Under the Curve (AUC) (SNL operated SD rats [3]; Table 2B, 5 mg/kg subset, AUC of % of baseline PWT, pre-dosing to 24 h post-dosing, dose as in label, cannabinoids p.o. D8, Pregabalin 50 mg/kg i.p.): 271 | Mean (Mean 1/Mean 2), electronic von Frey AUC (SNL operated SD rats [3]; Table 3, 10 mg/kg subset, AUC of % of baseline PWT, pre-dosing to 24 h post-dosing, dose as in label, cannabinoids p.o. D8, Pregabalin 50 mg/kg i.p.): 270.8 | Mean Diff, evF AUC (SNL operated SD rats [3]; Table 3, labelled group vs. CBD + THC 10 mg/kg): −63.2 | Mean Diff, evF AUC (SNL operated SD rats [3]; Table 3, labelled group vs. CBD + THC 10 mg/kg + CBC 2 mg/kg): −49.2 | Mean Diff, evF AUC (SNL operated SD rats [3]; Table 3, labelled group vs. Vehicle): 29.8 | Mean Diff, evF AUC (SNL operated SD rats [3]; vs. Vehicle, separate 'Tukey's multiple comparison test' block at foot of Tables 2A/2B): 29.8 and 30
